Data on 20 compounds can be found in US8658573B2, “Photo-generated carbohydrate arrays and the rapid identification of pathogen-specific antigens and antibodies” (priority 2006, dated 2014).

In the test the test system is rabbit anti-B. anthracis spore polyclonal IgG antibodies. The test is classed as binding.

For the compound `COC(=O)CCCCCO[C@@H]1O[C@@H](C)[C@H](O)[C@@H](O)[C@H]1O[C@@H]1O[C@@H](C)[C@H](O)[C@@H](O)[C@H]1O` [compound 18], the “IgG signal detected by carbohydrate arrays (n = 3), Mean” value (“IgG signal detected” for short) turned out to be 1.26.

`COC(=O)CCCCCO[C@@H]1O[C@@H](C)[C@H](O)[C@@H](O)[C@H]1O[C@@H]1O[C@@H](C)[C@H](O)[C@@H](O[C@@H]2O[C@@H](C)[C@H](O)[C@@H](O[C@@H]3O[C@H](C)[C@@H](NC(=O)CC(C)(C)O)[C@H](O)[C@H]3OC)[C@H]2O)[C@H]1O` [compound 5]: the “IgG signal detected” value is 5.19. Take `COC(=O)CCCCCO[C@@H]1O[C@@H](C)[C@H](O)[C@@H](O)[C@H]1O[C@@H]1O[C@@H](C)[C@H](O)[C@@H](O[C@@H]2O[C@H](C)[C@@H](NC(=O)CC(C)(C)O)[C@H](O)[C@H]2OC)[C@H]1O` [compound 3]: the “IgG signal detected” value stood at 2.73.

As for `CO[C@@H]1O[C@@H](C)[C@H](O)[C@@H](O[C@@H]2O[C@@H](C)[C@H](O)[C@@H](O)[C@H]2O)[C@H]1O` [compound 24], the “IgG signal detected” value amounted to 1.02.

Turning to `COC(=O)CCCCCO[C@@H]1O[C@@H](C)[C@H](O)[C@@H](O)[C@H]1O[C@@H]1O[C@@H](C)[C@H](O)[C@@H](O[C@@H]2O[C@@H](C)[C@H](O)[C@@H](O)[C@H]2O)[C@H]1O` [compound 17], the “IgG signal detected” value is reported as 0.98. Consider `COC(=O)CCCCCO[C@@H]1O[C@H](C)[C@@H](NC(=O)CC(C)(C)O)[C@H](O)[C@H]1OC` [compound 1], for which the “IgG signal detected” value is on record as 1.44. Same read-out and setting: to `CO[C@H]1O[C@H](CO)[C@H](O)[C@H](O)[C@H]1O[C@@H]1O[C@@H](C)[C@H](O)[C@@H](O[C@@H]2O[C@@H](C)[C@H](O)[C@@H](O[C@H]3O[C@H](CO)[C@@H](O)[C@H](O)[C@H]3NC(C)=O)[C@H]2O)[C@H]1O` [compound 22] belongs 0.95.

Regarding `COC(=O)CCCCCO[C@@H]1O[C@@H](C)[C@H](O)[C@@H](O)[C@H]1O[C@@H]1O[C@@H](C)[C@H](O)[C@@H](O[C@@H]2O[C@@H](C)[C@H](O)[C@@H](O[C@@H]3O[C@H](C)[C@@H](NC(=O)CC(C)(C)O)[C@H](O)[C@H]3OC)[C@H]2O)[C@H]1O` [Id# 5, 5-(Methoxycarbonyl)-pentyl 4-(3-hydroxy-3-methylbutanamido)-2-O-methyl-4,6-dideoxy-β-D-glucopyranosyl-(1→3)-α-L-rhamnopyranoyl-(1→3)-α-L-rhamnopyranosyl-(1→2)-α-L-rhamnopyranoside], the “recognition of surface-bound carbohydrate by the antibody (FIG. 2A/2B)” value is “recognized by the antibody”. Turning to `COC(=O)CCCCCO[C@H]1O[C@@H](C)[C@H](O)[C@@H](O)[C@H]1O[C@@H]1O[C@@H](C)[C@H](O)[C@@H](O[C@@H]2O[C@@H](C)[C@H](O)[C@@H](O)[C@H]2O)[C@H]1O` [compound 20], the “IgG signal detected” value is recorded as 0.95. On the same count and under the same terms, to `COC1O[C@H](CO)[C@H](O)[C@H](O)[C@H]1O[C@@H]1O[C@@H](C)[C@H](O)[C@@H](O)[C@H]1O` (some centres unmarked) [compound 21] belongs 1.08.

With `COC(=O)CCCCCO[C@@H]1O[C@@H](C)[C@H](O)[C@@H](O)[C@H]1O[C@@H]1O[C@@H](C)[C@H](O)[C@@H](O[C@@H]2O[C@H](C)[C@@H](NC(=O)CC(C)(C)O)[C@H](O)[C@H]2OC)[C@H]1O` [Id# 3, 5-(Methoxycarbonyl)-pentyl 4-(3-hydroxy-3-methylbutanamido)-2-O-methyl-4,6-dideoxy-β-D-glucopyranosyl-(1→3)-α-L-rhamnopyranosyl-(1→2)-α-L-rhamnopyranoside], the “recognition of surface-bound carbohydrate by the antibody (FIG. 2A/2B)” value is listed as “recognized by the antibody”.

`COC(=O)CCCCCO[C@H]1O[C@@H](C)[C@H](O)[C@@H](O)[C@H]1O[C@@H]1O[C@@H](C)[C@H](O)[C@@H](O[C@@H]2O[C@@H](C)[C@H](O)[C@@H](O[C@@H]3O[C@H](C)[C@@H](NC(=O)CC(C)(C)O)[C@H](O)[C@H]3OC)[C@H]2O)[C@H]1O` [compound 4]: the “IgG signal detected” value amounted to 5.16. The same measure, in the same setting: next, `CO[C@H]1O[C@H](CO)[C@@H](O)[C@H](O[C@H]2O[C@H](CO)[C@H](O)[C@H](O)[C@H]2O[C@@H]2O[C@@H](C)[C@H](O)[C@@H](O)[C@H]2O)[C@H]1NC(C)=O` [compound 23]: 1.01; `CC(=O)N[C@@H](C=O)[C@@H](O)[C@@H](O)[C@H](O)CO` [compound 11]: 1.03; `COC(=O)CCCCCO[C@H]1O[C@@H](C)[C@H](O)[C@@H](O)[C@H]1O` [compound 15]: 0.95. In the case of `COC(=O)CCCCCO[C@@H]1O[C@@H](C)[C@H](O)[C@@H](O)[C@H]1O` [compound 14], the “IgG signal detected” value is given as 0.97. The same measure, in the same setting: next, `COC(=O)CCCCCO[C@@H]1O[C@@H](C)[C@H](O)[C@@H](O[C@@H]2O[C@H](C)[C@@H](NC(=O)CC(C)(C)O)[C@H](O)[C@H]2OC)[C@H]1O` [compound 2]: 1.65; `COC(=O)CCCCCO[C@@H]1O[C@@H](C)[C@H](O)[C@@H](O[C@@H]2O[C@@H](C)[C@H](O)[C@@H](O)[C@H]2O)[C@H]1O` [compound 16]: 1.00. On the same count and under the same terms, next, `COC(=O)CCCCCO[C@H]1O[C@@H](C)[C@H](O)[C@@H](O)[C@H]1O[C@@H]1O[C@@H](C)[C@H](O)[C@@H](O)[C@H]1O` [compound 19]: 0.98. `COC(=O)CCCCCO[C@H]1O[C@@H](C)[C@H](O)[C@@H](O)[C@H]1O[C@@H]1O[C@@H](C)[C@H](O)[C@@H](O[C@@H]2O[C@@H](C)[C@H](O)[C@@H](O[C@@H]3O[C@H](C)[C@@H](NC(=O)CC(C)(C)O)[C@H](O)[C@H]3OC)[C@H]2O)[C@H]1O` [Id# 4, 5-(Methoxycarbonyl)-pentyl 4-(3-hydroxy-3-methylbutanamido)-2-O-methyl-4,6-dideoxy-β-D-glucopyranosyl-(1→3)-α-L-rhamnopyranoyl-(1→3)-α-L-rhamnopyranosyl-(1→2)-β-L-rhamnopyranoside]: the “recognition of surface-bound carbohydrate by the antibody (FIG. 2A/2B)” value was “recognized by the antibody”.
